Laboratory results reported in patent US20050209157A1, “Short bioactive peptides and methods for their use” (priority 2001, published 2005).
Read-outs that look alike come from different tables or passages of the source. No end group written: not given here.

How the values were obtained:
[1] = test system: Pseudomonas aeruginosa ATCC 9027; assay: Antimicrobial assay I, MIC by OD measurement; type: cell-based; details: 37° C. for 24 hours, absorbance 620 nm
[2] = test system: Staphylococcus aureus ATCC 6538; assay: Antimicrobial assay I, MIC by OD measurement; type: cell-based; details: 37° C. for 24 hours, absorbance 620 nm
[3] = test system: yeast (Saccharomyces cerevisiae); assay: Antimicrobial assay I, yeast assay in RPMI 1640; type: cell-based; details: RPMI 1640 media
BMKC = assay: Anti-cancer assay, MTT, LD50; type: cell-based; details: BMKC cloned melanoma line, 24 hours with peptide
Source text: (§1) Numbers are LD50 values (μg/mL).

H1299 = assay: Anti-cancer assay, MTT, LD50; type: cell-based; details: 24 hours with peptide, lung large cell carcinoma
Source text: as §1

HeLaS3 = assay: Anti-cancer assay, MTT, LD50; type: cell-based; details: 24 hours with peptide, cervical carcinoma
Source text: as §1

MCF7 = assay: Anti-cancer assay, MTT, LD50; type: cell-based; details: MCF7 breast adenocarcinoma line, MTT, 24 hours with peptide
Source text: as §1

PC3 = assay: Anti-cancer assay, MTT, LD50; type: cell-based; details: 24 hours with peptide, prostate adenocarcinoma
Source text: as §1

SW480 = assay: Anti-cancer assay, MTT, LD50; type: cell-based; details: SW480 colon adenocarcinoma line, 24 hours with peptide
Source text: as §1

in vitro [4] = type: cell-based, human; details: human, human red blood cells, pH 7, hemolytic assay, concentration at 50% hemolysis, 1 hour at 37° C.; read-out: LD50
P. aeruginosa H374 [5] = type: cell-based, Pseudomonas aeruginosa; details: for MIC Cm-comb.: MIC of chloramphenicol with peptide at ¼ MIC; for MIC Nal-comb.: MIC of nalidixic acid with peptide at ¼ MIC; for FIC Index: 0.5 or less = synergy
Procedure: (§2) The synergistic effects of the inventive peptides with either chloramphenicol or nalidixic acid against efflux mutants of Pseudomonas aeruginosa were investigated. The MIC values were determined for either nalidixic acid or chloramphenicol alone as baselines. Peptides were added at their ¼ MIC concentration, and the concentration of either nalidixic acid or chloramphenicol to arrive at the MIC was determined. […] The fractional inhibitory concentration (FIC) index was used to determine synergy between peptides and antibiotics. Two-fold serial dilutions of antibiotic were tested in the presence of a constant amount of peptide, equal to one quarter of peptide MIC. The FIC index was determined as follows: FIC=0.25+MICantibiotic in combination/MICantibiotic alone. An FIC index of 0.5 or less is considered as synergy.

P. aeruginosa H774 = type: cell-based, Pseudomonas aeruginosa; details: P. aeruginosa H744; nalidixic acid + peptide at ¼ MIC; 0.5 or less = synergy
Procedure: as §2

P. aeruginosa = type: cell-based, Pseudomonas aeruginosa; details: P. aeruginosa H744; MIC of nalidixic acid with peptide at ¼ MIC
Procedure: as §2

WI38 = details: MTT, 24 hours with peptide; normal fibroblast line
in vitro [6] = details: human, WI38 normal lung fibroblast cells, 24 hours with peptide
S. aureus (MRSA) = type: cell-based, Staphylococcus aureus; details: Table 15, strain SAP0017; in µg/mL
S. epidermidis C621 = type: cell-based, Staphylococcus epidermidis; details: Table 15
E. coli UB1005 = type: cell-based, Escherichia coli; details: Table 14
S. typhimurium 14028S = type: cell-based, Salmonella typhimurium; details: Table 14
P. aeruginosa H374 [7] = type: cell-based, Pseudomonas aeruginosa; details: Table 14; in µg/mL
[8] = test system: Pseudomonas aeruginosa H187; type: cell-based; details: Table 15; in µg/mL
Candida albicans 105 = type: cell-based; details: Table 15; in µg/mL
[9] = chloramphenicol + peptide at ¼ MIC
[10] = nalidixic acid + peptide at ¼ MIC, FIC=0.25+MIC comb/MIC alone
[11] = LD50 WI38, WI38 normal lung fibroblast line, MTT

Substance | MIC S. aureus SAP0017 (S. aureus (MRSA)) | MIC S. epidermidis C621 (S. epidermidis C621) | MIC E. coli UB1005 (E. coli UB1005) | MIC S. typhimurium 14028S (S. typhimurium 14028S) | MIC P. aeruginosa H374 (P. aeruginosa H374 [7]) | MIC P. aeruginosa H187 [8] | MIC C. albicans 105 (Candida albicans 105) | also measured
KTKLFKKFAKKLAKKLKKLAKKL-OH [P80] |  |  |  |  |  |  |  | paerug9027 (MIC) [1]: 100 µg/mL; staph6538 (MIC) [2]: 10 µg/mL; yeast (MIC or MFC) [3]: 100 µg/mL; LD50 BMKC (BMKC): 76 µg/mL; H1299 LD50 (H1299): 64 µg/mL; HeLaS3 LD50 (HeLaS3): 97 µg/mL; LD50 MCF7 (MCF7): 29 µg/mL; PC3 LD50 (PC3): 28 µg/mL; LD50 SW480 (SW480): 35 µg/mL; HC50 at 1 h (in vitro [4]): 900 µg/mL; MIC Cm-comb. (P. aeruginosa H374 [5]): 4 µg/mL; MIC Nal-comb. (P. aeruginosa H374 [5]): 2500 µg/mL; FIC Index (P. aeruginosa H374 [5]; [9]): 0.5; FIC Index (P. aeruginosa H374 [5]; [10]): 0.75; FIC Index (P. aeruginosa H774): 1.25; MIC Nal-comb. (P. aeruginosa): 624 µg/mL; WI38 LD50 (WI38): 28 µg/mL; CC50 at 24 h (in vitro [6]; [11]): 28 µg/mL
FAKKLAKKLAKLAL-NH2 [P45, FAKKLAKKLAKLAL-NH2] |  |  |  |  |  |  |  | paerug9027 (MIC) [1]: 100 µg/mL; staph6538 (MIC) [2]: 5 µg/mL; yeast (MIC or MFC) [3]: 100 µg/mL; LD50 BMKC (BMKC): 160 µg/mL; H1299 LD50 (H1299): 330 µg/mL; HeLaS3 LD50 (HeLaS3): 160 µg/mL; LD50 MCF7 (MCF7): 260 µg/mL; PC3 LD50 (PC3): 170 µg/mL; LD50 SW480 (SW480): 180 µg/mL; HC50 at 1 h (in vitro [4]): 700 µg/mL; MIC Cm-comb. (P. aeruginosa H374 [5]): 16 µg/mL; MIC Nal-comb. (P. aeruginosa H374 [5]): 2500 µg/mL; FIC Index (P. aeruginosa H374 [5]; [9]): 1.25; FIC Index (P. aeruginosa H374 [5]; [10]): 0.75; FIC Index (P. aeruginosa H774): 1.25; MIC Nal-comb. (P. aeruginosa): 624 µg/mL; WI38 LD50 (WI38): 200 µg/mL; CC50 at 24 h (in vitro [6]; [11]): 200 µg/mL
FALALKALKKLKKALKKAL-NH2 [P27] |  |  |  |  |  |  |  | paerug9027 (MIC) [1]: 10 µg/mL; staph6538 (MIC) [2]: 10 µg/mL; yeast (MIC or MFC) [3]: 25 µg/mL; LD50 BMKC (BMKC): 44 µg/mL; LD50 MCF7 (MCF7): 14 µg/mL; LD50 SW480 (SW480): 26 µg/mL; HC50 at 1 h (in vitro [4]): 125 µg/mL; FIC Index (P. aeruginosa H374 [5]; [9]): 0.75; FIC Index (P. aeruginosa H374 [5]; [10]): 0.25; FIC Index (P. aeruginosa H774): 1.25; CC50 at 24 h (in vitro [6]; [11]): 37 µg/mL; CC50 at 24 h (in vitro [6]; WI38 LD50, MTT, normal fibroblast line): 520 µg/mL
FAFAKIIAKIAKKII-NH2 [P140 (102)] | >128 | > 128 µg/mL | > 128 µg/mL | > 128 µg/mL | >128 | >128 | >128 | 
FALKALKK-NH2 [P145 (107)] | >128 | > 128 µg/mL | > 128 µg/mL | > 128 µg/mL | >128 | >128 | 64 | 
FALKALKKAL-NH2 [P170 (131)] | 0.128 | > 128 µg/mL | 64 µg/mL | > 128 µg/mL | >128 | >128 | 128 | 
FAKLA-NH2 [P128 (90)] | >128 | 128 µg/mL | 128 µg/mL | > 128 µg/mL | >128 | >128 | 128 | 
FAKAIAKIAFGKGIGKVGKKLL-NH2 [P134 (96)] | >128 | 128 µg/mL | 128 µg/mL | > 128 µg/mL | 128 | >128 | 64 | 
FALLKL-NH2 [P168 (129)] | >128 | 128 µg/mL | 128 µg/mL | > 128 µg/mL | 128 | 128 | 128 | 
GIGKFLHAAKKFAKAFVAEIMNS-NH2 [P300, reference compound] |  |  |  |  |  |  |  | LD50 BMKC (BMKC): 130 µg/mL; H1299 LD50 (H1299): 60 µg/mL; HeLaS3 LD50 (HeLaS3): 125 µg/mL; LD50 MCF7 (MCF7): 22 µg/mL; PC3 LD50 (PC3): 45 µg/mL; LD50 SW480 (SW480): 60 µg/mL; HC50 at 1 h (in vitro [4]): 250 µg/mL; MIC Cm-comb. (P. aeruginosa H374 [5]): 16 µg/mL; MIC Nal-comb. (P. aeruginosa H374 [5]): 312 µg/mL; MIC Nal-comb. (P. aeruginosa): 156 µg/mL; WI38 LD50 (WI38): 52 µg/mL; CC50 at 24 h (in vitro [6]; [11]): 52 µg/mL
FAKLLAKLAKK-NH2 [P151 (113)] | >128 | > 128 µg/mL | > 128 µg/mL | > 128 µg/mL | 128 | >128 | 128 | 
FAKLLAKLAKAKL-NH2 [P65 (44)] | >128 | > 128 µg/mL | 128 µg/mL | > 128 µg/mL | 64 | >128 | 64 | 
KAKLF-NH2 [P130 (92)] | >128 | > 128 µg/mL | > 128 µg/mL | > 128 µg/mL | >128 | >128 | >128 | 
FALALKA-NH2 [P141 (103)] | >128 | > 128 µg/mL | > 128 µg/mL | > 128 µg/mL | >128 | >128 | >128 | 
FAFGKGIGKIGKKGL-NH2 [P138 (100)] | >128 | > 128 µg/mL | > 128 µg/mL | > 128 µg/mL | >128 | >128 | >128 | 
